Laboratory results reported in US10947251B2, “Therapeutic compounds and methods of use thereof” (GENENTECH, INC., priority 2018, dated 2021).

Key:
hNav1.7 [1] = target: T1, hNav1.7 (Homo sapiens (Human), UniProt Q15858); test: Electrophysiological assay (EP), voltage clamp on Syncropatch 384PE; type: cell-based; details: CHO cells expressing Nav1.7, holding potential −50 mV, 7.5 min compound incubation; read-out: EP_SP hNav1.7 EVO IC50
Text: Example 39C. Electrophysiological Assay (EP) (In Vitro Assay)
Patch voltage clamp electrophysiology allows for the direct measurement and quantification of block of voltage-gated sodium channels (NaV's), and allows the determination of the time- and voltage-dependence of block which has been interpreted as differential binding to the resting, open, and inactivated states of the sodium channel (Hille, B., Journal of General Physiology (1977), 69: 497-515).
The following voltage clamp electrophysiology studies were performed on representative compounds using cells heterologously expressing Nav1.7 or Nav1.5 channels. cDNAs for Nav1.7 (NM_002977) and Nav1.5 (AC137587) were stably expressed in Chinese Hamstr Ovary (CHO) cells and CHL (Chinese Hamster Lung) cells respectively. Sodium currents were measured in the whole-cell configuration using Syncropatch 384PE (Nanlon Technologies, Germany). 1NPC®-384 chips with custom medium resistance and single hole mode are used. Internal solution consists of (in mM): 110 […], 10 CsCl, 20 EGTA, and 10 Hepes (pH adjusted to 7.2); and external solution contains (in mM): 60 NMDG, 80 NaCl, 4 KCl, 1 MgCl2, 2 CaCl2, 2 D-Glucose monohydrate, 10 Hepes (pH adjusted to 7.4 with NaOH).
After system flushing, testing compounds are dissolved in external solution containing 0.1% Pluronic F-127. The chip is moved into the measuring head and the instrument primes the chip with external and internal solutions. 10 l cells are added to the chip from a cell hotel, and a negative pressure of −50 mBar is applied to form a seal. Following treatment with seal enhancer solution and wash-off with external solution, negative pressure of −250 mbar is applied for 1 second to achieve the whole-cell configuration, followed by three washing steps in external solution. 20 µl of compounds is added to 40 µl in each well (1:3 dilution of compounds), and after mixing, 20 l is removed so the volume is retained at 40 ul. After approximately 13 minutes recordings, 20 µl/well of 2 uM TTX, or 333 uM Tetracaine (for Nav1.5) is added to achieve full block.
For voltage protocol, an holding potential of −50 mV is applied during the whole experiment. A depolarizing step is applied to −10 mV for 10 ms, followed by a hyperpolarization step to −150 mV for 20 ms to allow channel recovery from inactivation. A second depolarizing step is applied from −150 mV to −10 mV for 10 ms, where currents were measured to derive blocking effects of compounds. Inhibition is determined based on 7.5 min of compound incubation.

hNav1.7 [2] = target: T1, hNav1.7; test: Tritiated compound binding to membranes from cells heterologously expressing hNav1.7 and the β1 subunit (LBA); details: competitive binding vs [3H]compound, membranes with hNav1.7 and β1 subunit; read-out: Nav1.7 LBA EVO IC50
Description: Example 39A. Tritiated Compound Binding to Membranes Isolated from Cells that Heterologously Express hNav1.7 and the β1 Subunit
Preparation of membranes containing recombinantly expressed sodium channels: Frozen recombinant cell pellets were thawed on ice and diluted to 4 times the cell pellet weight with ice cold 50 mM Tris HCl, pH 7.4 buffer. The cell suspensions were homogenized on ice using a motorized glass dounce homogeniser. Homogenates were further diluted 8.4 times with ice cold 50 mM Tris HCl, pH 7.4 buffer and then centrifuged at 200×g at 4° C. for 15 min. The supernatants were collected and centrifuged at 10000×g at 4° C. for 50 min. The pellets were then re-suspended in 100 mM NaCl, 20 mM Tris HCl, pH 7.4 buffer containing 1% v/v protease inhibitors (Calbiochem) and re-homogenized on ice. The homogenized membranes were then processed through a syringe equipped with a 26 gauge needle. Protein concentrations were determined by Bradford Assay and the membranes were stored at −80° C.
Saturation experiments. A competitive NaV1.7 inhibitor having a methyl group was tritiated. Three tritiums were incorporated in place of methyl hydrogens to generate [^3H]compound. Binding of this radioligand was performed in 5 mL borosilicate glass test tubes at room temperature. Binding was initiated by adding membranes to increasing concentrations of [^3H]compound in 100 mM NaCl, 20 mM Tris HCl, pH 7.4 buffer containing 0.01% w/v bovine serum albumin (BSA) for 18 h. Non-specific binding was determined in the presence of 1 μM unlabeled compound. After 18 h, the reactants were filtered through GF/C glass fiber filters presoaked in 0.5% w/v polyethylene imine. Filters were washed with 15 mL ice cold 100 mM NaCl, 20 mM Tris HCl, pH7.4 buffer containing 0.25% BSA to separate bound from free ligand. [^3H]compound bound to filters was quantified by liquid scintillation counting.
Binding reactions were performed in 96-well polypropylene plates at room temperature for 18 h. In 360 μL, membranes were incubated with 100 pM [^3H]compound and increasing concentrations of Test Compound. Non-specific binding was defined in the presence of 1 μM unlabeled compound. Reactions were transferred and filtered through 96-well glass fiber/C filter plates presoaked with 0.5% polyethylene imine. The filtered reactions were washed 5 times with 200 μL ice cold buffer containing 0.25% BSA. Bound radioactivity was determined by liquid scintillation counting.
For saturation experiments, non-specific binding was subtracted from total binding to provide specific binding and these values were recalculated in terms of pmol ligand bound per mg protein. Saturation curves were constructed and dissociation constants were calculated using the single site ligand binding model: Beq=(Bmax*X)/(X+Kd), where Beq is the amount of ligand bound at equilibrium, Bmax is the maximum receptor density, Kd is the dissociation constant for the ligand, and X is the free ligand concentration. For competition studies percent inhibition was determined and IC50 values were calculated using a 4 parameter logistic model (% inhibition=(A+((B−A)/(1+((x/C)^D)))) using XLfit, where A and B are the maximal and minimum inhibition respectively, C is the IC50 concentration and D is the (Hill) slope.
Example 39B. Tritiated Compound Binding to Membranes Isolated from Cells that Heterologous Express hNav1.7 and the β1 Subunit
Following the procedure described in Example 39A, and making modifications as required to: centrifuge supernatants at 100000×g instead of 10000×g; re-suspend pellets in a buffer containing 0.01% BSA in addition to 100 mM NaCl, 20 mM Tris HCl, pH 7.4 buffer, and 1% v/v […]; and storing membranes at −80° C. in single use aliquots instead of pooled.
Saturation experiments: Following the procedure described in Example 243A, and making modifications as required to incubate [3H]compound for 3 hours instead of 18 hours. […]

For `COc1cc(-c2cccc(C(F)(F)F)c2)c(F)cc1N1CCO[C@@H]2CN(S(=O)(=O)Nc3ccon3)CC[C@H]21` [Example 25, (4aR,8aR)-1-(2-fluoro-5-methoxy-3′-(trifluoromethyl)-[1,1′-biphenyl]-4-yl)-N-(isoxazol-3-yl)hexahydro-1H-pyrido[3,4-b][1,4]oxazine-6(7H)-sulfonamide], the IC50 (hNav1.7 [1]) was 2.36 nM and the IC50 (hNav1.7 [2]) was 208 nM.

In the case of `COc1cc(-c2cccc(C(F)(F)F)c2)c(F)cc1N1CCO[C@H]2CN(S(=O)(=O)Nc3ccon3)CC[C@@H]21` [Example 26, (4aS,8aS)-1-(2-fluoro-5-methoxy-3′-(trifluoromethyl)-[1,1′-biphenyl]-4-yl)-N-(isoxazol-3-yl)hexahydro-1H-pyrido[3,4-b][1,4]oxazine-6(7H)-sulfonamide], the IC50 (hNav1.7 [1]) is reported as 10.6 nM and the IC50 (hNav1.7 [2]) is reported as 63.6 nM.

For `COc1cc(-c2cccc(C(F)(F)F)c2)c(F)cc1N1CCO[C@@H]2CN(S(=O)(=O)Nc3ccncn3)CC[C@H]21` [Example 27, (4aR,8aR)-1-(2-fluoro-5-methoxy-3′-(trifluoromethyl)-[1,1′-biphenyl]-4-yl)-N-(pyrimidin-4-yl)hexahydro-1H-pyrido[3,4-b][1,4]oxazine-6(7H)-sulfonamide], the IC50 (hNav1.7 [1]) was 2.02 nM and the IC50 (hNav1.7 [2]) was 21.2 nM.

In the case of `COc1cc(-c2cccc(C(F)(F)F)c2)c(F)cc1N1CCO[C@H]2CN(S(=O)(=O)Nc3ccncn3)CC[C@@H]21` [Example 28, (4aS,8aS)-1-(2-fluoro-5-methoxy-3′-(trifluoromethyl)-[1,1′-biphenyl]-4-yl)-N-(pyrimidin-4-yl)hexahydro-1H-pyrido[3,4-b][1,4]oxazine-6(7H)-sulfonamide], the IC50 (hNav1.7 [1]) is reported as 2.1 nM and the IC50 (hNav1.7 [2]) is reported as 26.3 nM.

With `COc1cc(-c2cccc(OC(F)(F)F)c2)c(F)cc1N1C(=O)CO[C@@H]2CN(S(=O)(=O)Nc3ccon3)CC[C@H]21` [Example 29, (4aR,8aR)-1-(2-fluoro-5-methoxy-3′-(trifluoromethoxy)-[1,1′-biphenyl]-4-yl)-N-(isoxazol-3-yl)-2-oxohexahydro-1H-pyrido[3,4-b][1,4]oxazine-6(7H)-sulfonamide] the IC50 (hNav1.7 [1]) was 2.21 nM and the IC50 (hNav1.7 [2]) was 62.3 nM.

`COc1cc(-c2cccc(OC(F)(F)F)c2)c(F)cc1N1C(=O)CO[C@H]2CN(S(=O)(=O)Nc3ccon3)CC[C@@H]21` [Example 30, (4aS,8aS)-1-(2-fluoro-5-methoxy-3′-(trifluoromethoxy)-[1,1′-biphenyl]-4-yl)-N-(isoxazol-3-yl)-2-oxohexahydro-H-pyrido[3,4-b][1,4]oxazine-6(7H)-sulfonamide] gave an IC50 (hNav1.7 [1]) of 2.35 nM and an IC50 (hNav1.7 [2]) of 35.6 nM.

`COc1cc(-c2cccc(OC(F)(F)F)c2)c(F)cc1N1CCO[C@@H]2CN(S(=O)(=O)Nc3ccon3)CC[C@H]21` [Example 31, (4aR,8aR)-1-(2-fluoro-5-methoxy-3′-(trifluoromethoxy)-[1,1′-biphenyl]-4-yl)-N-(isoxazol-3-yl)hexahydro-H-pyrido[3,4-b][1,4]oxazine-6(7H)-sulfonamide] showed an IC50 (hNav1.7 [1]) of 5.98 nM and an IC50 (hNav1.7 [2]) of 128 nM.

For `COc1cc(-c2cccc(OC(F)(F)F)c2)c(F)cc1N1CCO[C@H]2CN(S(=O)(=O)Nc3ccon3)CC[C@@H]21` [Example 32, (4aS,8aS)-1-(2-fluoro-5-methoxy-3′-(trifluoromethoxy)-[1,1′-biphenyl]-4-yl)-N-(isoxazol-3-yl)hexahydro-1H-pyrido[3,4-b][1,4]oxazine-6(7H)-sulfonamide], the IC50 (hNav1.7 [1]) was 10.9 nM and the IC50 (hNav1.7 [2]) was 148 nM.

Molecule `COc1cc(-c2cccc(C(F)(F)F)c2)c(F)cc1N1C(=O)OC[C@@H]2CN(S(=O)(=O)Nc3ccon3)CC[C@H]21` [Example 33, (4aR,8aR)-1-(2-fluoro-5-methoxy-3′-(trifluoromethyl)-[1,1′-biphenyl]-4-yl)-N-(isoxazol-3-yl)-2-oxohexahydro-2H-pyrido[4,3-d][1,3]oxazine-6(4H)-sulfonamide] has an IC50 (hNav1.7 [1]) of 10.4 nM and an IC50 (hNav1.7 [2]) of 112 nM.

Work on `COc1cc(-c2cccc(C(F)(F)F)c2)c(F)cc1N1C(=O)OC[C@H]2CN(S(=O)(=O)Nc3ccon3)CC[C@@H]21` [Example 34, (4aS,8aS)-1-(2-fluoro-5-methoxy-3′-(trifluoromethyl)-[1,1′-biphenyl]-4-yl)-N-(isoxazol-3-yl)-2-oxohexahydro-2H-pyrido[4,3-d][1,3]oxazine-6(4H)-sulfonamide] yielded an IC50 (hNav1.7 [1]) of 196 nM and an IC50 (hNav1.7 [2]) of 2000 nM.

For `COc1cc(-c2cccc(C(F)(F)F)c2)c(F)cc1N1C(=O)CC[C@@H]2CN(S(=O)(=O)Nc3ccon3)CC[C@H]21` [Example 35, (4aR,8aR)-1-(2-fluoro-5-methoxy-3′-(trifluoromethyl)-[1,1′-biphenyl]-4-yl)-N-(isoxazol-3-yl)-2-oxooctahydro-1,6-naphthyridine-6(2H)-sulfonamide], the IC50 (hNav1.7 [1]) was 2.88 nM and the IC50 (hNav1.7 [2]) was 49.3 nM.

`COc1cc(-c2cccc(C(F)(F)F)c2)c(F)cc1N1C(=O)CC[C@@H]2CN(S(=O)(=O)Nc3ccon3)CC[C@@H]21` [Example 38, (4aR,8aS)-1-(2-fluoro-5-methoxy-3′-(trifluoromethyl)-[1,1′-biphenyl]-4-yl)-N-(isoxazol-3-yl)-2-oxooctahydro-1,6-naphthyridine-6(2H)-sulfonamide] showed an IC50 (hNav1.7 [1]) of 10.7 nM and an IC50 (hNav1.7 [2]) of 641 nM.
